≈ marks a conversion by molar mass, not a printed value. Like-named read-outs stand apart in the source and are kept apart here.
Key:
[1] = system: S. aureus Sa26 ATCC 25923; experiment: Antibacterial activity assay (MIC), S. aureus Sa26; format: cell-based; conditions: for MIC: Staphylococcus aureus
S. aureus Sa4 NCTC 6571 = experiment: Antibacterial activity assay (MIC), S. aureus Sa4; format: cell-based; conditions: for MIC: Staphylococcus aureus
[2] = system: E. coli Ec50 efflux pump KO; experiment: microbe, parasite or virus in culture; format: cell-based; conditions: for MIC: Escherichia coli, read-out: MIC Ec50 efflux pump KO
[3] = system: S. aureus Sa2 clinical strain NCIMB 41953, MRSA; experiment: microbe, parasite or virus in culture; format: cell-based; conditions: for MIC: Staphylococcus aureus, read-out: MIC Sa2
[4] = system: E. coli Ec113 efflux pump KO; experiment: microbe, parasite or virus in culture; format: cell-based; conditions: for MIC: Escherichia coli, read-out: MIC Ec113 efflux pump KO
[5] = system: H. influenza Hi47 clinical strain, Ampicillin Resistant; experiment: organism not typed; format: cell-based; conditions: for MIC: read-out: MIC Hi47
S. aureus Sa1 ATCC 13709 = experiment: microbe, parasite or virus in culture; format: cell-based; conditions: for MIC: Staphylococcus aureus
[6] = target: DNA Polymerase IIIα (DnaE) from Staphylococcus aureus (Staphylococcus aureus, UniProt Q6GG04); experiment: biochemical
Sequence of DNA Polymerase IIIα (DnaE) from Staphylococcus aureus (Q6GG04 1-1022): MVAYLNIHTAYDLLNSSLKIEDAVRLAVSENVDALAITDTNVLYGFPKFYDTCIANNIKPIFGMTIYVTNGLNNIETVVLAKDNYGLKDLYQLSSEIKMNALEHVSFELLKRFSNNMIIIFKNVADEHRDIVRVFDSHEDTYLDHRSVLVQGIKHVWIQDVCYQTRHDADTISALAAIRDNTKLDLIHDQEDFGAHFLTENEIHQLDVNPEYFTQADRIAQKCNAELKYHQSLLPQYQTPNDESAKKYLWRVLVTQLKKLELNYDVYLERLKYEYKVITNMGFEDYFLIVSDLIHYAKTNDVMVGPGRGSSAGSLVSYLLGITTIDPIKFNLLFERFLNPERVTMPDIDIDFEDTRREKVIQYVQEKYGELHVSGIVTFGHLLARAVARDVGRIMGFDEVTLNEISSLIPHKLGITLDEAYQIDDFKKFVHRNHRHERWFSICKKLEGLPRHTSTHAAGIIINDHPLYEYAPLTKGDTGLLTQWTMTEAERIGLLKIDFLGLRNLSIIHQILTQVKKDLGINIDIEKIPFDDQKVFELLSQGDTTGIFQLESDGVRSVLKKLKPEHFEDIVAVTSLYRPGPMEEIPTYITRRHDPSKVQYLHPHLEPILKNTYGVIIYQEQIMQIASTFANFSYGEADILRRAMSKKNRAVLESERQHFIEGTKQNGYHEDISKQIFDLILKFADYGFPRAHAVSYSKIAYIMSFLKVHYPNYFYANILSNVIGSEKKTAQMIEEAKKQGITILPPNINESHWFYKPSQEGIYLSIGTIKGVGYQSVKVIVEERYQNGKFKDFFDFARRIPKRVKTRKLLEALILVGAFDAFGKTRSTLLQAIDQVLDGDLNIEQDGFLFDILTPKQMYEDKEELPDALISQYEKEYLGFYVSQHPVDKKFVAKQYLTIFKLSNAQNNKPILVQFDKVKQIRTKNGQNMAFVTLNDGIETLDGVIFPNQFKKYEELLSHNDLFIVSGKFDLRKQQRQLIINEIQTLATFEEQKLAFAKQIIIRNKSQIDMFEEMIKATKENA

E. coli Ec1 ATCC 25922 = experiment: Antibacterial activity assay (MIC), E. coli Ec1; format: cell-based; conditions: for MIC: Escherichia coli
[7] = system: H. influenza Hi106 ATCC 51907; experiment: organism not typed; format: cell-based; conditions: read-out: MIC Hi106
[8] = system: H. influenza Hi3 ATCC 31517; experiment: organism not typed; format: cell-based; conditions: read-out: MIC Hi3
[9] = system: H. influenza Hi10 clinical strain; experiment: organism not typed; format: cell-based; conditions: read-out: MIC Hi10
[10] = ATCC25923, read-out: MIC Sa26 + 10% SH, S. aureus Sa26 + 10% SH
[11] = ATCC25923, read-out: MIC Sa26 + 50% SH, S. aureus Sa26 + 50% SH
[12] = ATCC25923, S. aureus Sa26 ATCC 25923, sensitive strain, Mueller-Hinton Broth, 37° C., read-out: MIC Sa26
[13] = NCTC6571, S. aureus Sa4 NCTC 6571, sensitive strain, read-out: MIC Sa4
[14] = ATCC13709, S. aureus Sa1 ATCC 13709, sensitive strain, Mueller-Hinton Broth, 37° C., read-out: MIC Sa1
[15] = ATCC25922, E. coli Ec1 ATCC 25922, sensitive strain, read-out: MIC Ec1
[16] = DNA polymerase III, S. aureus, read-out: IC50 semiquantitative scoring, S. aureus

Row | Molecule | MIC [7] [µg/mL] | MIC [8] [µg/mL] | MIC [2] [µg/mL] | MIC [9] [µg/mL] | MIC [3] [µg/mL] | MIC [4] [µg/mL] | MIC [5] [µg/mL] | IC50 [6] [nM] | MIC [1, 10] [µg/mL] | MIC [1, 11] [µg/mL] | MIC [1, 12] [µg/mL] | MIC (S. aureus Sa4 NCTC 6571; [13]) [µg/mL] | MIC (S. aureus Sa1 ATCC 13709; [14]) [µg/mL] | MIC (E. coli Ec1 ATCC 25922; [15]) [µg/mL] | other results
1 | 8-O-4-Bromo-5-Chloro-1H-pyrrole-2′-carbonylbranimycin [Compound 35] | – | – | – | – | – | – | – | – | – | – | – | – | – | – | MIC Sa26 + 10% SH ([1]; S. aureus Sa26 + 10% SH): >64 µg/mL; MIC Sa26 + 50% SH ([1]; S. aureus Sa26 + 50% SH): >64 µg/mL; MIC Sa26 ([1]; S. aureus Sa26 ATCC 25923, sensitive strain, Mueller-Hinton Broth, 37° C.): >64 µg/mL; MIC Sa4 (S. aureus Sa4 NCTC 6571; S. aureus Sa4 NCTC 6571, sensitive strain): 64 µg/mL; MIC Ec50 efflux pump KO ([2]; E. coli Ec50 efflux pump KO): >64 µg/mL; MIC Sa2 ([3]; S. aureus Sa2 clinical strain, MRSA, Erythromycin Resistant, Fluoroquinolone resistant): 64 µg/mL; MIC Ec113 efflux pump KO ([4]; E. coli Ec113 efflux pump KO): 64 µg/mL; MIC Hi47 ([5]; H. influenza Hi47 clinical strain, Ampicillin Resistant): >64 µg/mL; MIC Sa1 (S. aureus Sa1 ATCC 13709; S. aureus Sa1 ATCC 13709, sensitive strain, Mueller-Hinton Broth, 37° C.): >64 µg/mL; IC50 semiquantitative scoring, S. aureus [6]: ** (key: ***: 0.001-1 μg/mL; **: 1.0-10 μg/mL; *: >10 μg/mL); MIC Ec1 (E. coli Ec1 ATCC 25922; E. coli Ec1 ATCC 25922, sensitive strain): >64 µg/mL
2 | COC/C(=N\OC)[C@H]1OC(=O)[C@H](COC)[C@H]2C=C[C@H]3[C@H]4O[C@]2(/C(C)=C/[C@H]1C)[C@@H]3[C@H](O)[C@@H](COC)[C@H]4OC(=O)c1ccc[nH]1 [Compound 27, 18-Deoxy-18-methoximino-8-O-1H-pyrrole-2′-carbonylbranimycin] | > 64 | > 64 | > 64 | > 64 | 1 (≈ 1.66 µM) | 4 (≈ 6.64 µM) | > 64 | 1.66 to 1660 | – | – | – | – | – | – | MIC ([1]; ATCC25923, read-out: MIC Sa26): 1 µg/mL (≈ 1.66 µM); MIC ([1]; ATCC25923, read-out: MIC Sa26 + 10% SH): 2 µg/mL; MIC ([1]; ATCC25923, read-out: MIC Sa26 + 50% SH): 4 µg/mL; MIC (S. aureus Sa4 NCTC 6571; NCTC6571, read-out: MIC Sa4): 1 µg/mL (≈ 1.66 µM); MIC (S. aureus Sa1 ATCC 13709; ATCC13709, read-out: MIC Sa1): 1 µg/mL (≈ 1.66 µM); MIC (E. coli Ec1 ATCC 25922; ATCC25922, read-out: MIC Ec1): > 64 µg/mL
3 | COCC(=NOC(C)=O)[C@H]1OC(=O)[C@H](COC)[C@H]2C=C[C@H]3[C@H]4O[C@]2(/C(C)=C/[C@H]1C)[C@@H]3[C@H](O)[C@@H](COC)[C@H]4OC(=O)c1ccc[nH]1 [Compound 29, 18-Acetylimino-18-deoxy-8-O-1H-pyrrole-2′-carbonylbranimycin] | 64 (≈ 101 µM) | > 64 | 32 (≈ 50.7 µM) | > 64 | 0.5 (≈ 0.793 µM) | 0.5 (≈ 0.793 µM) | 64 (≈ 101 µM) | 1.59 to 1590 | 1 | 2 | 1 (≈ 1.59 µM) | 0.5 (≈ 0.793 µM) | 0.5 (≈ 0.793 µM) | > 64 | –
4 | COC[C@@H]1[C@@H](O)[C@@H]2[C@H]3C=C[C@@H]4[C@@H](COC)C(=O)O[C@H]([C@H](O)COC)[C@H](C)/C=C(\C)[C@@]24O[C@H]3[C@@H]1OC(=O)c1cc(Br)c[nH]1 [Compound 32, 8-O-4-Bromo-1H-pyrrole-2′-carbonylbranimycin] | > 64 | > 64 | > 64 | > 64 | 4 (≈ 6.11 µM) | 64 (≈ 97.8 µM) | > 64 | 1.53 to 1530 | 16 | 64 | 16 (≈ 24.4 µM) | 8 (≈ 12.2 µM) | 4 (≈ 6.11 µM) | > 64 | –
5 | COC[C@@H]1[C@@H](O)[C@@H]2[C@H]3C=C[C@@H]4[C@@H](COC)C(=O)O[C@H]([C@H](O)COC)[C@H](C)/C=C(\C)[C@@]24O[C@H]3[C@@H]1OC(=O)c1cc(Br)c(Br)[nH]1 [Compound 34, 8-O-4,5-Dibromo-1H-pyrrole-2′-carbonylbranimycin] | > 64 | > 64 | > 64 | > 64 | 64 (≈ 87.3 µM) | 64 (≈ 87.3 µM) | 16 (≈ 21.8 µM) | – | > 64 | > 64 | 64 (≈ 87.3 µM) | 32 (≈ 43.6 µM) | 64 (≈ 87.3 µM) | > 64 | IC50 [6, 16]: 1360 to 13600 nM
6 | COC[C@@H]1[C@@H](O)[C@@H]2[C@H]3C=C[C@@H]4[C@@H](COC)C(=O)O[C@H]([C@H](O)COC)[C@H](C)/C=C(\C)[C@@]24O[C@H]3[C@@H]1OC(=O)c1cc(Br)c(Br)o1 [Compound 36, 8-O-4,5-Dibromofurane-2′-carbonylbranimycin] | > 64 | > 64 | > 64 | > 64 | 64 (≈ 87.1 µM) | 64 (≈ 87.1 µM) | > 64 | – | > 64 | > 64 | > 64 | 32 (≈ 43.6 µM) | 64 (≈ 87.1 µM) | > 64 | IC50 [6, 16]: 1.36 to 1360 nM
7 | COC[C@@H]1[C@@H](O)[C@@H]2[C@H]3C=C[C@@H]4[C@@H](COC)C(=O)O[C@H]([C@H](O)COC)[C@H](C)/C=C(\C)[C@@]24O[C@H]3[C@@H]1OC(=O)c1cc(F)c(F)[nH]1 [Compound 38, 8-O-4,5-Difluoro-1H-pyrrole-2′-carbonylbranimycin] | > 64 | > 64 | > 64 | > 64 | 32 (≈ 52.3 µM) | 8 (≈ 13.1 µM) | > 64 | – | > 64 | 64 | 64 (≈ 105 µM) | 16 (≈ 26.2 µM) | 32 (≈ 52.3 µM) | > 64 | –
8 | COCC(=NO)[C@H]1OC(=O)[C@H](COC)[C@H]2C=C[C@H]3[C@H]4O[C@]2(/C(C)=C/[C@H]1C)[C@@H]3[C@H](O)[C@@H](COC)[C@H]4OC(=O)c1cc(Cl)c[nH]1 [Compound 41, 18-Deoxy-18-oximino-8-O-4-Chloro-1H-pyrrole-2′-carbonylbranimycin] | > 64 | > 64 | 64 (≈ 103 µM) | > 64 | – | 2 (≈ 3.21 µM) | > 64 | 1.6 to 1600 | 4 | 32 | 2 (≈ 3.21 µM) | 2 (≈ 3.21 µM) | 4 (≈ 6.42 µM) | > 64 | –
9 | COCC(=NOC(C)=O)[C@H]1OC(=O)[C@H](COC)[C@H]2C=C[C@H]3[C@H]4O[C@]2(/C(C)=C/[C@H]1C)[C@@H]3[C@H](O)[C@@H](COC)[C@H]4OC(=O)c1cc(Cl)c[nH]1 [Compound 42, 18-Acetylimino-18-deoxy-8-O-4-Chloro-1H-pyrrole-2′-carbonylbranimycin] | > 64 | > 64 | 64 (≈ 96.2 µM) | > 64 | 2 (≈ 3.01 µM) | 4 (≈ 6.01 µM) | > 64 | – | 16 | 32 | 4 (≈ 6.01 µM) | 2 (≈ 3.01 µM) | 2 (≈ 3.01 µM) | > 64 | –

Reference: patent US20160297830A1, “NOVEL COMPOUNDS USEFUL FOR THE TREATMENT OF BACTERIAL INFECTIOUS DISEASES” (GALAPAGOS NV, priority 2013, published 2016)
